# Reference: the supplement of paper PMC10307832
# Legend:
# Test in all cases: relative viability (nuclei count vs DMSO), 5 days (fraction); higher = more cells survive
# [1] = compound: C1=CC(=CC=C1C2=CC(=C(S2)NC(=O)N)C(=O)N)F [TPCA-1] + Cc1nc(Nc2ncc(C(=O)Nc3c(C)cccc3Cl)s2)cc(N2CCN(CCO)CC2)n1 [Dasatinib] (partner 0.075 µM)
# Method in brief: (§1)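 Five library-drug doses in √10 steps were combined with a fixed anchor-drug dose, or a single drug was given alone, by pin tool to lung cancer cell lines in 1536-well plates the day after seeding. Nuclei were stained and counted after 5 days. Relative viability is the nuclei count in treated wells over that in vehicle wells, taken as the median of duplicate plates.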
# [2] = compound: C1=CC(=CC=C1C2=CC(=C(S2)NC(=O)N)C(=O)N)F [TPCA-1] + N=C(N)NC(=N)NCCc1ccccc1 [Phenformin] (partner 250 µM)
# Method in brief: as §1
# [3] = compound: C1=CC(=CC=C1C2=CC(=C(S2)NC(=O)N)C(=O)N)F [TPCA-1] + NC(=O)Nc1cc(-c2cccc(F)c2)sc1C(=O)N[C@H]1CCCNC1 [AZD7762] (partner 0.2 µM)
# Method in brief: as §1
# [4] = compound: C[C@]12O[C@H](C[C@]1(O)CO)n1c3ccccc3c3c4c(c5c6ccccc6n2c5c31)CNC4=O [Lestaurtinib] + Nc1ncn([C@H]2C[C@H](O)[C@@H](CO)O2)c(=O)n1 [Decitabine] (partner 2 µM)
# Method in brief: as §1
Cell Line,relative viability ([1]; first compound 0.04 µM),relative viability ([1]; first compound 0.1265 µM),relative viability ([1]; first compound 0.4 µM),relative viability ([1]; first compound 1.265 µM),relative viability ([1]; first compound 4 µM),relative viability ([2]; first compound 0.04 µM),relative viability ([2]; first compound 0.1265 µM),relative viability ([2]; first compound 0.4 µM),relative viability ([2]; first compound 1.265 µM),relative viability ([2]; first compound 4 µM),relative viability ([3]; first compound 0.04 µM),relative viability ([3]; first compound 0.1265 µM),relative viability ([3]; first compound 0.4 µM),relative viability ([3]; first compound 1.265 µM),relative viability ([3]; first compound 4 µM),relative viability ([4]; first compound 0.005 µM),relative viability ([4]; first compound 0.01581 µM),relative viability ([4]; first compound 0.05 µM),relative viability ([4]; first compound 0.1581 µM),relative viability ([4]; first compound 0.5 µM)
NCI-H1666,0.842,0.829,0.828,0.805,0.677,0.547,0.569,0.533,0.529,0.581,0.895,0.659,0.79,0.714,0.757,0.769,0.807,0.944,0.912,0.704
NCI-H1734,0.508,0.421,0.492,0.455,0.41,0.42,0.363,0.42,0.391,0.287,0.558,0.504,0.604,0.639,0.374,0.56,0.499,0.442,0.444,0.253
NCI-H1755,0.499,0.424,0.396,0.31,0.285,0.665,0.553,0.6,0.503,0.427,0.444,0.634,0.402,0.337,0.378,0.723,0.791,0.806,0.638,0.559
NCI-H1792,0.8,0.715,0.765,0.678,0.624,0.326,0.246,0.322,0.217,0.158,0.623,0.62,0.596,0.483,0.363,0.485,0.567,0.336,0.543,0.256
NCI-H1793,0.422,–,0.342,0.365,0.211,0.364,–,0.297,0.402,0.261,0.53,0.649,0.751,0.392,0.144,0.506,0.481,0.459,0.542,0.421
NCI-H1915,0.322,0.292,0.33,0.263,0.243,0.403,0.362,0.385,0.321,0.289,0.744,0.679,0.671,0.588,0.617,0.275,0.266,0.284,0.263,0.217
NCI-H1944,0.251,0.207,0.217,0.198,0.151,0.238,0.202,0.217,0.176,0.189,0.474,0.484,0.565,0.455,0.474,0.419,0.481,0.442,0.463,0.317
NCI-H1975,0.39,0.381,0.368,0.368,0.188,0.445,0.392,0.435,0.405,0.312,0.717,0.682,0.763,0.923,0.522,0.395,0.39,0.356,0.36,0.338
NCI-H1993,0.564,0.54,0.617,0.522,0.537,0.425,0.536,0.55,0.421,0.485,0.972,0.748,0.745,0.747,0.598,0.62,0.666,0.729,0.499,0.428
NCI-H2085,0.267,0.262,0.246,0.265,0.257,0.837,0.616,0.693,0.555,0.389,–,1.02,1.01,0.9,0.669,0.55,0.583,0.664,0.597,0.551
NCI-H2087,1.15,0.658,0.816,0.745,0.397,0.475,0.417,0.417,0.351,0.154,1.24,1.3,1.34,1.29,0.758,0.289,0.338,0.258,0.207,0.206
NCI-H2126,0.617,0.531,0.602,0.549,0.437,0.561,0.499,0.53,0.537,0.44,0.996,0.936,1.03,0.978,0.87,0.582,0.593,0.623,0.536,0.553
NCI-H2170,0.676,0.56,0.632,0.581,0.269,0.478,0.401,0.424,0.402,0.362,1.13,0.815,0.892,0.766,0.474,0.461,0.489,0.441,0.43,0.383
NCI-H2342,0.323,0.323,0.276,0.241,0.294,0.612,0.538,0.574,0.504,0.47,0.504,0.469,0.403,0.349,0.404,0.713,0.76,0.742,0.722,0.77
NCI-H2347,0.296,0.277,0.26,0.258,0.262,0.652,0.331,0.451,0.262,0.264,0.729,0.717,0.923,0.739,0.633,0.587,0.651,0.57,0.512,0.496
NCI-H2405,0.226,0.216,0.22,0.207,0.208,0.459,0.37,0.471,0.166,0.38,0.859,0.738,0.877,0.79,0.648,0.728,0.77,0.742,0.638,0.413
